Experimental data: patent publication US5607937A, “Piperazides of substituted phenylalanine derivatives as thrombin inhibitors” (priority 1993, dated 1997)
Where two headings read alike, the source gives them in different places.

Assays:
[1] = target: factor Xa (Bos taurus, UniProt P00743); assay: inhibition of factor Xa, dissociation constant Ki; format: biochemical; settings: Table 1
Method: (§1) The biological activity of the compounds of the present invention was determined in vitro as well as in vivo.

[2] = plasma concentration in rats after rectal administration; format: in vivo; settings: rat; for concentration at 0.5 h: 30 min; for concentration at 1 h: 60 min; for concentration at 2 h: 120 min; for concentration at 3 h: 180 min
[3] = target: glandular kallikrein (Sus scrofa, UniProt P00752); assay: inhibition of glandular kallikrein, dissociation constant Ki
[4] = target: plasma kallikrein (Homo sapiens, UniProt P03952); assay: inhibition of plasma kallikrein, dissociation constant Ki
[5] = system: coagulation in human plasma; assay: activated partial thromboplastin time (aPTT) in human plasma
[6] = system: coagulation in human plasma; assay: thrombin time (TT) in human plasma
[7] = target: T1, factor XIIa (Homo sapiens, UniProt P00748); assay: inhibition of factor XIIa, dissociation constant Ki
T1 sequence (P00748 373-615 limits assumed): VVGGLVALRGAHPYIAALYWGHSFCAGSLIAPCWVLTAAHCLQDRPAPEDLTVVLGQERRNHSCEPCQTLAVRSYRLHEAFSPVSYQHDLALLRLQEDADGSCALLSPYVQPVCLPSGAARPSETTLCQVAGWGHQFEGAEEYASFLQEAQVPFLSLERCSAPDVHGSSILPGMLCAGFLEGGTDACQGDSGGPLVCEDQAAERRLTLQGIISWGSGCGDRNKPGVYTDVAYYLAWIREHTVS

[8] = system: coagulation in human plasma; assay: prothrombin time (PT, Quick value) in human plasma
[9] = target: tPA (Homo sapiens, UniProt P00750); assay: inhibition of tPA, dissociation constant Ki
[10] = plasma concentration in rats after intravenous administration; format: in vivo; settings: rat; for concentration at 0.25 h: 15 min; for concentration at 0.5 h: 30 min; for concentration at 1 h: 60 min; for elimination in words: i.v.
Method: A physiological NaCl solution of the substance to be tested was submitted to high pressure liquid chromatography (HPLC) in order to determine its characteristic substance-specific retention time with the chosen test conditions.
The substance to be tested was diluted in vitro in rat plasma. This solution was also submitted to HPLC to see whether the characteristic peak of the substance once again appeared at the substance-specific retention time.
Blood samples were taken at time intervals of 15 minutes, from which plasma samples were prepared by centrifugation; those samples were also submitted to HPLC to see whether the characteristic peak of the substance appeared again at the substance-specific retention time.
After administration, blood samples were taken from the test animals at time intervals from 2 to maximally 360 minutes and the blood level of the compounds to be tested was determined by HPLC.

[11] = target: plasmin (Homo sapiens, UniProt P00747); assay: inhibition of plasmin, dissociation constant Ki
[12] = plasma concentration in rats after oral administration; format: in vivo; settings: rat; for resorption in words: oral
[13] = system: coagulation in rat plasma; assay: thrombin time in rat plasma after rectal application; format: in vivo
Method: (§2) After rectal administration of the compounds to be tested, the anticoagulant effect was determined in the plasma of experimental animals.

[14] = in vivo; settings: rat, intraduodenal 100 mg/kg; for Concentration in plasma: hydrochloride, 100 mg/kg
[15] = target: T2, trypsin (Bos taurus, UniProt P00760); assay: inhibition of trypsin, dissociation constant Ki; format: biochemical; design: thrombin and the related enzymes trypsin, plasmin, factor Xa, factor XIIa; settings: Table 1; read-out: Ki, Trypsin
T2 sequence (P00760 24-246): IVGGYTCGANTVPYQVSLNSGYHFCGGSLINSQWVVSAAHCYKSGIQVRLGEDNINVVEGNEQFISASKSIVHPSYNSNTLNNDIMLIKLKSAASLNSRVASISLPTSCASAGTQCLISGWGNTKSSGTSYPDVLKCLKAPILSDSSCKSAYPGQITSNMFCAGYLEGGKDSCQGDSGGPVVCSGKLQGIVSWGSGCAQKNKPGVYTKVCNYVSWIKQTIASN
Method: as §1

[16] = system: coagulation in rat plasma; assay: aPTT in rat plasma after rectal application; format: in vivo
Method: as §2

[17] = concentration in rat plasma in the anticoagulant study after rectal application; format: in vivo; settings: for concentration at 0.5 h / concentration at 1 h / concentration at 2 h / concentration at 3 h: plasma; for concentration at 0.5 h: 30 min; for concentration at 1 h: 60 min; for concentration at 2 h: 120 min; for concentration at 3 h: 180 min; for Concentration in plasma: 0 min

glandular kallikrein, sequence (P00752 8-246): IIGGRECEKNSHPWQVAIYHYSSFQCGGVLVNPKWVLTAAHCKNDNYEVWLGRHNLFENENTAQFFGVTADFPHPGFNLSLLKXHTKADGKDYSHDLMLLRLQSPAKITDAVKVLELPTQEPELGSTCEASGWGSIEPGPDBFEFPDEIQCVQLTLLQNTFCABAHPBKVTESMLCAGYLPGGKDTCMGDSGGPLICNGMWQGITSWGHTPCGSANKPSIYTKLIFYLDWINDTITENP
plasma kallikrein, sequence (P03952 391-638 limits assumed, species assumed): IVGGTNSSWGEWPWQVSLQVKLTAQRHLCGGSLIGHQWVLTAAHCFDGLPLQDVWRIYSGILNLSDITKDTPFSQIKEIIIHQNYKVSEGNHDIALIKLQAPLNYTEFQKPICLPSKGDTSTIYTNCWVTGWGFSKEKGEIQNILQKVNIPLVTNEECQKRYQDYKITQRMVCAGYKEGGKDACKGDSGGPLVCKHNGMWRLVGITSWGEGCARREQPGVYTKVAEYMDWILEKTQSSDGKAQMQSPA
plasma kallikrein, sequence (P03952 20-390 partner limits assumed, species assumed): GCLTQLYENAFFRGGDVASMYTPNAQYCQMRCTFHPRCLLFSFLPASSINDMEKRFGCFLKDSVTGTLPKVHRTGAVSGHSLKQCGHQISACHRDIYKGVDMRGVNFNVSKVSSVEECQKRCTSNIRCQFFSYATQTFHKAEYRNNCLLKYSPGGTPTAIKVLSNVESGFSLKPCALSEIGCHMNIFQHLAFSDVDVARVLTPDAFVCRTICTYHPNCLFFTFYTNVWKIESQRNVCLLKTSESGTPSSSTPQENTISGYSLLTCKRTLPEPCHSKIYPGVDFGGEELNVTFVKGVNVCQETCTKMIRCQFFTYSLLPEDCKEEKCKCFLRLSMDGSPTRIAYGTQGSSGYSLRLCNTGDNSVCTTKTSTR
plasmin, sequence (P00747 581-810 limits assumed): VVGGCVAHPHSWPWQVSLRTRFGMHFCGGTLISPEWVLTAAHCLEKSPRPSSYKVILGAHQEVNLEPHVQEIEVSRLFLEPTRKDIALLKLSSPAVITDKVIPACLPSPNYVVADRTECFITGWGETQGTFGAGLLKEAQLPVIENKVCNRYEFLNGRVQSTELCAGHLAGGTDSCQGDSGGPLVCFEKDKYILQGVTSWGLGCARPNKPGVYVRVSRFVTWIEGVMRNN
plasmin, sequence (P00747 97-580 partner limits assumed): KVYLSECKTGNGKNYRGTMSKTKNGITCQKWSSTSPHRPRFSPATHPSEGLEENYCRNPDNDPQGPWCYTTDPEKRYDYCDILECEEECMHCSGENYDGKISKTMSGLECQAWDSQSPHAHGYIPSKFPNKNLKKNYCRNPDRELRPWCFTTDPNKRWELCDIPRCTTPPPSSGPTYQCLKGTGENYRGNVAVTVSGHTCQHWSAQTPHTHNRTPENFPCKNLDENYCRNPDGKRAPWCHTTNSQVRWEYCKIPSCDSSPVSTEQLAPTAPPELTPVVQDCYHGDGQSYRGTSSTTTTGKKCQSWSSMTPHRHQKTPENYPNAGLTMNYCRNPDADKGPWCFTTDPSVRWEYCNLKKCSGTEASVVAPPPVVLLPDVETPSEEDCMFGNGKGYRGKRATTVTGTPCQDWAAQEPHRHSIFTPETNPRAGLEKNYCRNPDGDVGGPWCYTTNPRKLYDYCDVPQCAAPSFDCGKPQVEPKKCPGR
tPA, sequence (P00750 36-562): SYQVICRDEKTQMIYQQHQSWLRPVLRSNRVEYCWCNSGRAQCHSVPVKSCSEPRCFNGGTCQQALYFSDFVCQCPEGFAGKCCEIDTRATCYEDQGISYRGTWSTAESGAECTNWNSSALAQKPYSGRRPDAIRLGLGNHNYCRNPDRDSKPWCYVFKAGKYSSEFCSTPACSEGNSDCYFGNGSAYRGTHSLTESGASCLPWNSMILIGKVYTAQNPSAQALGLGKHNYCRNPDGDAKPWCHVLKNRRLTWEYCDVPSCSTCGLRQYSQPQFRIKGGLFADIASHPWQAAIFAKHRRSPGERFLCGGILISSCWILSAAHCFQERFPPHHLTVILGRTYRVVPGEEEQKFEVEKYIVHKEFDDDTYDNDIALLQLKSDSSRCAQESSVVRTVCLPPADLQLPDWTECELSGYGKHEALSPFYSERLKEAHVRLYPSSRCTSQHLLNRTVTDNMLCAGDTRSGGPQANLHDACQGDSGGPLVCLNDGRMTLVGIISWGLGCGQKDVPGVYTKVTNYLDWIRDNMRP
factor Xa, sequence (P00743 234-492 limits assumed): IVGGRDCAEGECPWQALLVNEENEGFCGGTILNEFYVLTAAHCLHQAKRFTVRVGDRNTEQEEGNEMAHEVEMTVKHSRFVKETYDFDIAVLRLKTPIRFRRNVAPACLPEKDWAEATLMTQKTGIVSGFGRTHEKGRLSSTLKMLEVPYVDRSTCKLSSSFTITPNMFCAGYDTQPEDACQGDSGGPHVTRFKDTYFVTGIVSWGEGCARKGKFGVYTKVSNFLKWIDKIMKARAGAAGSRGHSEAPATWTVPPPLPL
factor Xa, sequence (P00743 41-180 partner limits assumed): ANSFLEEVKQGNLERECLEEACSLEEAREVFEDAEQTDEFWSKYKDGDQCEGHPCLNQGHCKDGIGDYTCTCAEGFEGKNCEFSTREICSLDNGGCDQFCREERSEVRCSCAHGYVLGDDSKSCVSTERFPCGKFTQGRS

Structure (SMILES): CC(=O)N1CCN(C(=O)C(Cc2cccc(C(=N)N)c2)NS(=O)(=O)c2ccc3ccccc3c2)CC1 (centres unmarked) [Compound 1]
- Ki [1]: 48 µM
- concentration at 0.5 h ([2]; plasma, rectal 100 mg/kg): 31400 ng/mL
- concentration at 1 h ([2]; plasma, rectal 100 mg/kg): 17900 ng/mL
- concentration at 2 h ([2]; plasma, rectal 100 mg/kg): 3780 ng/mL
- concentration at 3 h ([2]; plasma, rectal 100 mg/kg): 1080 ng/mL
- concentration at 4 h ([2]; plasma, rectal 100 mg/kg, 240 min): 438 ng/mL
- concentration at 5 h ([2]; plasma, rectal 100 mg/kg, 300 min): 220 ng/mL
- concentration at 6 h ([2]; plasma, rectal 100 mg/kg, 360 min): 158 ng/mL
- detectable in plasma after rectal administration ([2]; rectal): ≥ 6 h
- Ki [3]: > 1000 µM
- Ki [4]: 28 µM
- Concentr. to double the aPTT [5]: 0.90 µmol/L
- concentration to double the aPTT [5]: ≤ 1 μmol/1
- Concentr. to double the Thrombin time [6]: 0.095 µmol/L
- concentration to double the TT [6]: less than 10^-7 mol/1
- Ki [7]: 210 µM
- Concentr. to double the Prothrombin time [8]: 2.5 µmol/L
- concentration to double the PT [8]: ≤ 1 μmol/1
- Ki [9]: > 1000 µM
- concentration at 5 min ([10]; plasma, iv, i.v. 1 mg/kg): 1060 ng/mL
- concentration at 0.25 h ([10]; plasma, iv, i.v. 1 mg/kg): 394 ng/mL
- concentration at 0.5 h ([10]; plasma, iv, i.v. 1 mg/kg): 150 ng/mL
- concentration at 1 h ([10]; plasma, iv, i.v. 1 mg/kg): 89 ng/mL
- concentration at 2 h ([10]; plasma, iv, i.v. 1 mg/kg, 120 min): 74 ng/mL
- concentration at 3 h ([10]; plasma, iv, i.v. 1 mg/kg, 180 min): 51 ng/mL
- elimination in words [10]: eliminated at comparable rate
- Ki ([11]; read-out: Ki, Plasmin, Table 1): 8.4 µM
- concentration at 0.5 h ([12]; plasma, oral 50 mg/kg, 30 min): 87 ng/mL
- concentration at 1 h ([12]; plasma, oral 50 mg/kg, 60 min): 63 ng/mL
- concentration at 2 h ([12]; plasma, oral 50 mg/kg, 120 min): 57 ng/mL
- concentration at 3 h ([12]; plasma, oral 50 mg/kg, 180 min): 69 ng/mL
- concentration at 4 h ([12]; plasma, oral 50 mg/kg, 240 min): 91 ng/mL
- concentration at 5 h ([12]; plasma, oral 50 mg/kg, 300 min): 61 ng/mL
- resorption in words [12]: only slightly resorbed

Structure (SMILES): CS(=O)(=O)N1CCN(C(=O)[C@H](Cc2cccc(C(=N)N)c2)NS(=O)(=O)c2ccc3ccccc3c2)CC1.Cl [Compound 5, Nα-(2-naphthylsulfonyl)-3-amidino-(L)-phenylalanine-4methylsulfonylpiperazide hydrochloride]
- Clotting time, Thrombin time ([13]; rectal 5 mg/kg, 0 min): 51.5 s
- Clotting time, Thrombin time ([13]; rectal 5 mg/kg, 30 min): > 300 s
- Clotting time, Thrombin time ([13]; rectal 5 mg/kg, 60 min): 255 s
- Clotting time, Thrombin time ([13]; rectal 5 mg/kg, 120 min): 137.5 s
- Clotting time, Thrombin time ([13]; rectal 5 mg/kg, 180 min): 95 s
- Clotting time, Thrombin time ([13]; rectal 20 mg/kg, 0 min): 153 s
- Clotting time, Thrombin time ([13]; rectal 20 mg/kg, 30 min): > 300 s
- Clotting time, Thrombin time ([13]; rectal 20 mg/kg, 60 min): > 300 s
- Clotting time, Thrombin time ([13]; rectal 20 mg/kg, 120 min): > 300 s
- Clotting time, Thrombin time ([13]; rectal 20 mg/kg, 180 min): > 300 s
- concentration at 0.5 h ([2]; plasma, rectal 20 mg/kg): 1650 ng/mL
- concentration at 1 h ([2]; plasma, rectal 20 mg/kg): 958 ng/mL
- concentration at 2 h ([2]; plasma, rectal 20 mg/kg): 299 ng/mL
- concentration at 3 h ([2]; plasma, rectal 20 mg/kg): 192 ng/mL
- Ki [3]: > 1000 µM
- Ki [4]: 9.2 µM
- concentration at 3 h ([14]; plasma, 180 min): 297 ng/mL
- concentration at 4 h ([14]; plasma, 240 min): 530 ng/mL
- concentration at 5 h ([14]; plasma, 300 min): 137 ng/mL
- concentration at 6 h ([14]; plasma, 360 min): 119 ng/mL
- Concentration in plasma ([14]; 30 min): 8744 ng/mL
- Concentration in plasma ([14]; 30 min, listed as 5*): 1576 ng/mL
- Concentration in plasma ([14]; 60 min): 9314 ng/mL
- Concentration in plasma ([14]; 60 min, listed as 5*): 1900 ng/mL
- Concentration in plasma ([14]; 120 min): 8612 ng/mL
- Concentration in plasma ([14]; 120 min, listed as 5*): 1763 ng/mL
- Ki [15]: 0.067 µM
- Clotting time, aPTT ([16]; rectal 5 mg/kg, 0 min): 21.2 s
- Clotting time, aPTT ([16]; rectal 5 mg/kg, 30 min): 34.5 s
- Clotting time, aPTT ([16]; rectal 5 mg/kg, 60 min): 30.5 s
- Clotting time, aPTT ([16]; rectal 5 mg/kg, 120 min): 27.5 s
- Clotting time, aPTT ([16]; rectal 5 mg/kg, 180 min): 25.3 s
- Clotting time, aPTT ([16]; rectal 20 mg/kg, 0 min): 22 s
- Clotting time, aPTT ([16]; rectal 20 mg/kg, 30 min): 65 s
- Clotting time, aPTT ([16]; rectal 20 mg/kg, 60 min): 62.5 s
- Clotting time, aPTT ([16]; rectal 20 mg/kg, 120 min): 36 s
- Clotting time, aPTT ([16]; rectal 20 mg/kg, 180 min): 29.7 s
- Concentr. to double the aPTT [5]: 0.26 µmol/L
- concentration to double the aPTT [5]: ≤ 1 μmol/1
- Concentr. to double the Thrombin time [6]: 0.034 µmol/L
- concentration to double the TT [6]: less than 10^-7 mol/1
- Ki [7]: 52 µM
- Concentr. to double the Prothrombin time [8]: 0.39 µmol/L
- concentration to double the PT [8]: ≤ 1 μmol/1
- concentration at 0.5 h ([17]; rectal 5 mg/kg): 168 ng/mL
- concentration at 1 h ([17]; rectal 5 mg/kg): 65 ng/mL
- concentration at 2 h ([17]; rectal 5 mg/kg): 82 ng/mL
- concentration at 3 h ([17]; rectal 5 mg/kg): 10 ng/mL
- concentration at 0.5 h ([17]; rectal 20 mg/kg): 1570 ng/mL
- concentration at 1 h ([17]; rectal 20 mg/kg): 983 ng/mL
- concentration at 2 h ([17]; rectal 20 mg/kg): 380 ng/mL
- concentration at 3 h ([17]; rectal 20 mg/kg): 195 ng/mL
- Concentration in plasma ([17]; rectal 5 mg/kg): 0 ng/mL
- Concentration in plasma ([17]; rectal 20 mg/kg): 0 ng/mL
- Ki [9]: 190 µM
- concentration at 5 min ([10]; plasma, iv, i.v. 1 mg/kg): 879 ng/mL
- concentration at 0.25 h ([10]; plasma, iv, i.v. 1 mg/kg): 367 ng/mL
- concentration at 0.5 h ([10]; plasma, iv, i.v. 1 mg/kg): 151 ng/mL
- concentration at 1 h ([10]; plasma, iv, i.v. 1 mg/kg): 50 ng/mL
- elimination in words [10]: eliminated at comparable rate
- Concentration in plasma ([10]; i.v. 1 mg/kg, 120 min): 0 ng/mL
- Concentration in plasma ([10]; i.v. 1 mg/kg, 180 min): 0 ng/mL
- Ki [11]: 9 µM
- resorption in words [12]: only slightly resorbed
